From PubChem BioAssay AID308 (DTP/NCI, 2004)
Toxic doses and inconclusive results are not listed. How the source made its calls: active means survival T/C of 150% or more; inactive means T/C below 125% in these data.

Test system: BDF1 mice, L1210 6-MP/6-TG resistant leukemia ip, survival T/C
Test: NCI In Vivo Anticancer Drug Screen. Data for tumor model L1210 Leukemia resistant to 6-MP and 6-Thioguanine; NSC 755, NSC 752 (intraperitoneal) in B6D2F1 (BDF1) mice
Conditions: endpoint: mean survival time, schedule: Q01DX015 (ip), vehicle: other, higher = longer survival
Description: The antitumor activity of compounds was measured in mice bearing transplantable tumors. Survival or tumor size were measured and the results are expressed as the measurement made in the treated group (T) divided by the measurement made in the vehicle treated control group (C). The tumor model used in this assay is L1210 Leukemia resistant to 6-MP and 6-Thioguanine; NSC 755, NSC 752 (intraperitoneal) in B6D2F1 (BDF1) mice

Measured: T/C

C=CCn1cnc2c(=S)nc[nH]c21
inactive: dose: 18.0 mg/kg/injection 103 % of control | dose: 26.0 mg/kg/injection 108 % of control | dose: 40.0 mg/kg/injection 101 % of control | dose: 60.0 mg/kg/injection 95 % of control
